Usually GI50 stands for the concentration that inhibits growth by half. As usually defined, the TGI is the concentration giving total growth inhibition. Read a high TGI as lower sensitivity of the cells.

Some test systems named below: SF-295 CNS; MCF7 breast; OVCAR-4 ovarian; SK-MEL-2 melanoma; RXF 393 renal; CAKI-1 renal; DU-145 prostate; SR leukemia; T-47D breast; 786-0 renal.
Assay in all cases: DTP human tumour cell line panel, 48 h

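The compound was tested at five concentrations on cells cultured in 96-well plates, with a 48-hour exposure period. Abbreviation: GI50, concentration required for 50% inhibition of growth. TGI marks complete inhibition of growth.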 Where only a bound is given, the exact number is not on record here.

For `COc1cc(Cn2c(SCC(=O)Nc3ccc(Cl)cc3)nc3ccccc3c2=O)cc(OC)c1OC`, the GI50 is 5.54 µM in the assay with SF-295 CNS; 8.97 µM in the assay with MCF7 breast; 3.01 µM in the assay on OVCAR-4 ovarian; 15.2 µM in the assay with SK-MEL-2 melanoma; 2.59 µM in the assay on RXF 393 renal; 11.3 µM in the assay with CAKI-1 renal. Moreover, the GI50 in the assay on DU-145 prostate was 18.1 µM; in the assay on SR leukemia, 18.5 µM; in the assay with T-47D breast, 2.16 µM; in the assay on 786-0 renal, 3.37 µM. In addition, the TGI in the assay with SF-295 CNS turned out to be 18.4 µM; in the assay on MCF7 breast, 55.1 µM; with OVCAR-4 ovarian, 13.9 µM; in the assay on SK-MEL-2 melanoma, 32.9 µM; with RXF 393 renal it was 8.88 µM; with CAKI-1 renal, 58.1 µM. Moreover, the TGI with DU-145 prostate was more than 100 µM; with SR leukemia, more than 100 µM; with T-47D breast, 8.21 µM; in the assay with 786-0 renal, 12.3 µM.

As for `N[C@@H](CSSC[C@H](N)C(=O)N1CCn2cc(-c3ccccc3)nc2[C@@H]1CC1CCCCC1)C(=O)N1CCn2cc(-c3ccccc3)nc2[C@@H]1CC1CCCCC1`, the GI50 is 1.83 µM with SF-295 CNS; 1.42 µM with MCF7 breast; 2.15 µM with OVCAR-4 ovarian; 0.837 µM in the assay with SK-MEL-2 melanoma; 1.63 µM in the assay with RXF 393 renal; 1.91 µM in the assay on CAKI-1 renal. The GI50 in the assay on DU-145 prostate was 2.45 µM; in the assay with SR leukemia, 1.38 µM; with T-47D breast, 0.543 µM; in the assay on 786-0 renal, 2.12 µM. Moreover, the TGI was 3.41 µM with SF-295 CNS; 2.85 µM in the assay with MCF7 breast; 4.8 µM with OVCAR-4 ovarian; 2.28 µM in the assay on SK-MEL-2 melanoma; 3.1 µM in the assay on RXF 393 renal; 4.6 µM in the assay on CAKI-1 renal. For the same compound, the TGI in the assay on DU-145 prostate stood at 8.65 µM; in the assay on T-47D breast, 2.02 µM; with 786-0 renal, 4.52 µM.

Regarding `N=C1/C(=C2\Nc3ccccc3S2)CC(=O)N1c1ccc(SC(F)F)cc1`, the GI50 with SF-295 CNS was 1.1 µM; with MCF7 breast it was 9.35 µM; in the assay on OVCAR-4 ovarian, 0.969 µM; in the assay with SK-MEL-2 melanoma, 27.3 µM; in the assay with RXF 393 renal, 2.81 µM; with CAKI-1 renal it was 8.7 µM. Also, the GI50 in the assay on DU-145 prostate is 77.1 µM; with SR leukemia, 2.21 µM; in the assay with T-47D breast, 27.8 µM; in the assay on 786-0 renal, 3.23 µM. For the same compound, the TGI in the assay with SF-295 CNS is 9.32 µM; in the assay on MCF7 breast, more than 100 µM; with OVCAR-4 ovarian, 52.2 µM; in the assay on SK-MEL-2 melanoma, more than 100 µM; in the assay on RXF 393 renal it was 25.7 µM; in the assay with CAKI-1 renal it was more than 100 µM. In addition, the TGI in the assay with DU-145 prostate, in the assay on SR leukemia, in the assay with T-47D breast and in the assay with 786-0 renal was more than 100 µM throughout.

Regarding `CCN1C(=O)N(CC)C2C1NN=c1s/c(=C\c3ccc(OC)cc3)c(=O)n12` (stereo not drawn), the GI50 is 0.0684 µM in the assay with SF-295 CNS; 0.0465 µM in the assay on MCF7 breast; 0.614 µM in the assay with OVCAR-4 ovarian; 1.66 µM with SK-MEL-2 melanoma; 0.0789 µM with RXF 393 renal; 0.0577 µM in the assay on CAKI-1 renal. Also, the GI50 was 0.323 µM with DU-145 prostate, 0.0444 µM with SR leukemia, 0.163 µM with T-47D breast and 0.647 µM in the assay with 786-0 renal. For the same compound, the TGI in the assay on SF-295 CNS is more than 45.9 µM; in the assay with MCF7 breast, more than 100 µM; in the assay with OVCAR-4 ovarian, more than 100 µM; in the assay on SK-MEL-2 melanoma, more than 100 µM; with RXF 393 renal, 47 µM; with CAKI-1 renal, more than 80.2 µM. Further, the TGI with DU-145 prostate was more than 29.8 µM; with T-47D breast, more than 100 µM; in the assay with 786-0 renal, more than 100 µM.

For the compound `Cc1cc(C#Cc2ccccc2)ccc1-n1c(/C=C/c2cc(O)ccc2O)nc2ccccc2c1=O`, the GI50 is 1.35 µM with SF-295 CNS; 1.45 µM with MCF7 breast; 2.4 µM in the assay with OVCAR-4 ovarian; 1.4 µM in the assay with SK-MEL-2 melanoma; 1.65 µM in the assay on RXF 393 renal; 2.15 µM in the assay on CAKI-1 renal. For the same compound, the GI50 is 0.419 µM in the assay on DU-145 prostate, 1.1 µM in the assay with SR leukemia, 1.14 µM in the assay with T-47D breast and 1.74 µM with 786-0 renal. Also, the TGI came to 3.82 µM with SF-295 CNS; 2.87 µM with MCF7 breast; 8.5 µM in the assay on OVCAR-4 ovarian; 3.05 µM with SK-MEL-2 melanoma; 3.72 µM in the assay on RXF 393 renal; 7.24 µM in the assay with CAKI-1 renal. For the same compound, the TGI amounted to 1.62 µM in the assay on DU-145 prostate, 2.87 µM in the assay on SR leukemia, 3.67 µM with T-47D breast and 3.15 µM in the assay on 786-0 renal.

With `CC(=O)C(C=O)C(C)=O.CC(=O)CC(C)=O.CC(=O)CC(C)=O.[Ru]`, the GI50 with SF-295 CNS was 16.2 µM; in the assay with MCF7 breast it was 35.4 µM; with OVCAR-4 ovarian it was 19.5 µM; with SK-MEL-2 melanoma, 24.3 µM; in the assay on RXF 393 renal, 40.9 µM; with CAKI-1 renal it was 27.5 µM. In addition, the GI50 in the assay with DU-145 prostate is 37.8 µM; in the assay with SR leukemia it was 18.2 µM; in the assay with T-47D breast, 32.7 µM; in the assay with 786-0 renal it was 37.3 µM. In addition, the concentration for total growth inhibition (TGI) in the assay on SF-295 CNS is 68 µM; in the assay on MCF7 breast it was more than 100 µM; with OVCAR-4 ovarian, more than 100 µM; with SK-MEL-2 melanoma, more than 100 µM; in the assay with RXF 393 renal, more than 100 µM; with CAKI-1 renal it was 72.4 µM. Besides, the TGI in the assay with DU-145 prostate was more than 100 µM; in the assay on SR leukemia, 92.6 µM; in the assay on T-47D breast it was more than 100 µM; with 786-0 renal, more than 100 µM.

Turning to `COc1ccc2nc3cc(Cl)ccc3c(Nc3cc(C(C)C)c(O)cc3C)c2c1`, the GI50 was 1.36 µM in the assay on SF-295 CNS; 1.66 µM with MCF7 breast; 2.5 µM in the assay on OVCAR-4 ovarian; 1.85 µM with SK-MEL-2 melanoma; 1.28 µM with RXF 393 renal; 2.1 µM in the assay with CAKI-1 renal. In addition, the GI50 in the assay with DU-145 prostate was 2.48 µM; in the assay on SR leukemia it was 0.703 µM; in the assay with T-47D breast, 1.92 µM; with 786-0 renal, 1.64 µM. The TGI came out at 3.01 µM in the assay on SF-295 CNS; 3.96 µM in the assay on MCF7 breast; 9.46 µM in the assay on OVCAR-4 ovarian; 3.75 µM in the assay with SK-MEL-2 melanoma; 2.9 µM with RXF 393 renal; 5.42 µM in the assay on CAKI-1 renal. In addition, the total growth inhibition concentration (TGI) was 6.97 µM in the assay with DU-145 prostate, 12 µM with SR leukemia, 4.68 µM with T-47D breast and 3.05 µM in the assay on 786-0 renal.

For the origin of these results see PubChem BioAssay (NCI).
